Data: patent US20220168198A1, “AN ANTIMICROBIAL MIXTURE” (SYMRISE AG, priority 2019, published 2022)

Tests used:
[1] = tested on: mold growth on moist alfalfa hay; settings: moist alfalfa hay preservation, Agronomy Journal 47, 64-69, 1955; cited from earlier work
[2] = tested on: S. epidermitis; assay: MIC determination (agar dilution or broth microdilution), activity against S. epidermitis; format: cell-based; design: unit not given beside the values; settings: Comparison: MIC values for the actives taken alone
Procedure: (§1) Synergistic activity of mixtures of 4-Isopropyl-3-methylphenol an alpha bisabolol with regard to S. aureus and S. epidermidis was determined. […]
(§2) Antimicrobial activity was evaluated by determining the Minimum Inhibitory Concentration (MIC) representing the lowest concentration of a chemical which prevents visible growth of a bacterium.
(§3) The MIC values were determined by preparing solutions of the chemical in vitro at increasing concentrations, incubating the solutions with the separate batches of cultured bacteria, and measuring the results using agar dilution or broth microdilution. Results have been graded into susceptible (often called sensitive), intermediate, or resistant to a particular antibiotic by using a cutoff point. Cut off points are agreed upon values, published in guidelines of a reference body, such as the U.S. Clinical and Laboratory Standards Institute (CLSI), the British Society for Antimicrobial Chemotherapy (BSAC) or the European Committee on Antimicrobial Susceptibility Testing (EUCAST).

[3] = tested on: S. aureus; assay: MIC determination (agar dilution or broth microdilution), activity against S. aureus; format: cell-based; design: unit not given beside the values; settings: Comparison: MIC values for the actives taken alone
Procedure: as §1, §2, §3

Structure (SMILES)	prevention of mold growth [1]	MIC [2]	MIC [3]
CC(=O)c1ccc(O)cc1 [4-hydroxyacetophenone]	not prevent mold growth		
CC(C)=CCC[C@](C)(O)[C@@H]1CC=C(C)CC1 [alpha-Bisabolol]		125	125
Cc1cc(O)ccc1C(C)C [4-Isopropyl-3-methylphenol]		250	250
